Results: US20210038626A1, “COMPOSITIONS COMPRISING AND METHODS OF USING INHIBITORS OF SODIUM-GLUCOSE COTRANSPORTERS 1 AND 2” (Lexicon Pharmaceuticals, Inc., priority 2011, published 2021)

Experiments:
[1] = tested on: patients with type 2 diabetes mellitus; assay: Phase 2a clinical trial, liquid oral dosage form once daily for 28 days; type: in vivo, human
Method: Certain aspects of this invention may be understood with reference to the figures. FIGS. 1-10 show results obtained from a randomized, double-blind, placebo controlled Phase 2a clinical trial, wherein 150 mg and 300 mg doses of (2S,3R,4R,5S,6R)-2-(4-chloro-3-(4-ethoxybenzyl)phenyl)-6-(methylthio)tetrahydro-2H-pyran-3,4,5-triol were orally administered in solution once daily to patients with type 2 diabetes mellitus. FIG. 11 provides results obtained from a Phase 1 clinical trial, wherein both solid and liquid oral dosage forms of the compound were administered to patients with type 2 diabetes mellitus.
This invention is based, in part, on findings obtained from a randomized, double-blind, placebo controlled Phase 2a clinical trial, wherein 150 mg/day and 300 mg/day doses of a compound of the invention were orally administered in a liquid to patients with type 2 diabetes mellitus. The compound was (2S,3R,4R,5S,6R)-2-(4-chloro-3-(4-ethoxybenzyl)phenyl)-6-(methylthio)tetrahydro-2H-pyran-3,4,5-triol, which has the structure:
Patients (n=36) with type 2 diabetes mellitus received one of two oral doses of (2S,3R,4R,5S,6R)-2-(4-chloro-3-(4-ethoxybenzyl)phenyl)-6-(methylthio)tetrahydro-2H-pyran-3,4,5-triol, given as 150 mg or 300 mg once daily, or matching placebo, for 28 days in solution.
In this study, patients on metformin were taken off of the drug 16 days prior to day 0, the day dosing first began.

[2] = tested on: patients with type 2 diabetes mellitus; assay: Phase 1 clinical trial comparing solid and liquid oral dosage forms, single 300 mg dose, crossover; type: in vivo, human; settings: single doses
Method: This invention is further based on findings obtained from a randomized, double-blind, placebo controlled Phase 1 clinical trial that compared liquid and solid dosage forms of the compound.
Patients (n=12) with type 2 diabetes mellitus received one of three oral formulations of 300 mg of (2S,3R,4R,5S,6R)-2-(4-chloro-3-(4-ethoxybenzyl)phenyl)-6-(methylthio)tetrahydro-2H-pyran-3,4,5-triol before breakfast: as two 150 mg tablets, six 50 mg tablets, or 30 mL of 10 mg/mL solution in a randomized sequence implementing a Latin Square crossover design, with a 5-day washout between doses.
Changes in urinary glucose excretion, fasting plasma glucose (FPG), insulin, postprandial glucose (PPG), peptide YY (PYY), and glucagon-like peptide-1(GLP-1) were measured at days −1, 1, 6, and 11.

[3] = tested on: human SGLT1 / human SGLT2; settings: ratio of human SGLT1 IC50 to human SGLT2 IC50
Method: HEK293 cells were transfected with the human HA-SGLT2-pIRESpuro2 vector and the bulk stable cell line was selected in presence of 0.5 μg/ml of puromycin. Human HA-SGLT2 cells were maintained in DMEM media containing 10% FBS, 1% GPS and 0.5 μg/ml of puromycin.
The HEK293 cells expressing the human HA-SGLT2 were seeded in 384 well plates (30,000 cells/well) in DMEM media containing 10% FBS, 1% GPS and 0.5 μg/ml of puromycin, then incubated overnight at 37 C, 5% CO2. Cells were then washed with uptake buffer (140 mM NaCl, 2 mM KCl, 1 mM CaCl2, 1 mM MgCl2, 10 mM HEPES, 5 mM Tris, 1 mg/ml bovine serum albumin (BSA), pH 7.3). Twenty microliters of uptake buffer with or without testing compounds were added to the cells. […] After washing the cells with uptake buffer, scintillation fluid was added (40 microliters/well) and ^14C-AMG uptake was measured by counting radioactivity using a scintillation coulter (TopCoulter NXT; Packard Instruments).
Cells were then washed with uptake buffer (140 mM NaCl, 2 mM KCl, 1 mM CaCl2, 1 mM MgCl2, 10 mM HEPES, 5 mM Tris, 1 mg/ml bovine serum albumin (BSA), pH 7.3). […] After washing the cells with uptake buffer, scintillation fluid was added (40 microliters/well) and ^14C-AMG uptake was measured by counting radioactivity using a scintillation coulter (TopCoulter NXT; Packard Instruments).

[4] = 150 mg and 300 mg once daily, 28 days

## CCOc1ccc(Cc2cc([C@@H]3O[C@H](SC)[C@@H](O)[C@H](O)[C@H]3O)ccc2Cl)cc1 [(2S,3R,4R,5S,6R)-2-(4-chloro-3-(4-ethoxybenzyl)phenyl)-6-(methylthio)tetrahydro-2H-pyran-3,4,5-triol]
[1]; 150 mg and 300 mg once daily, 28-day dosing period, preliminary data
  glucosuria compared to placebo: significant and sustained glucosuria
[1]; [4]
  adverse events: generally mild and evenly distributed across all dose groups, including placebo
  dose-limiting toxicities: no evidence of dose-limiting toxicities
[1]; 150 mg/day and 300 mg/day treatment groups vs placebo
  glucose tolerance (FIG. 2): greater glucose tolerance than those in the placebo group
[1]; 150 mg/day and 300 mg/day treatment groups, upon treatment
  plasma glucose levels (FIG. 1): rapid, statistically significant decrease
[1]; 150 mg/day and 300 mg/day vs placebo
  post-prandial glucose levels (FIG. 5): rapid, statistically significant decrease
[1]; 150 mg/day and 300 mg/day vs placebo, day 27
  insulin sensitivity, homeostatic model assessment (HOMA) (FIG. 4): improved insulin sensitivity compared to placebo
[1]; 150 mg/day and 300 mg/day, after 28 days of dosing, vs placebo
  mean diastolic and systolic blood pressures (FIGS. 8 and 9): decreased mean diastolic and systolic blood pressures
[1]; 150 mg/day and 300 mg/day, day 28 vs baseline
  mean arterial pressures (FIG. 10): also decreased
[1]; 150 mg/day and 300 mg/day, four weeks
  mean HbA1c levels (FIG. 7): marked decrease
[2]
  FPG and PPG levels: markedly improved
  GLP-1 and PYY levels: increased
[3]
  SGLT1 IC50: SGLT2 IC50 ratio: about 20
